Assay results reported in patent US11078216B2, “Bisaryl amides as NRF2 activators” (GLAXOSMITHKLINE INTELLECTUAL PROPERTY DEVELOPMENT LIMITED, priority 2016, dated 2021).
Where a name gives a salt, the structure may show the parent alone.

System: NRF2 (NQO1 activity as marker for NRF2 activation), BEAS-2B cells
Assay: BEAS-2B NQO1 MTT Assay
Assay type: cell-based
Conditions: Homo sapiens, EC50 of NQO1 specific activity induction, 48 hours incubation, read-out: EC50
Outline: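 BEAS-2B cells were exposed to compound for 48 h at 37° C, 5% CO2, then lysed. NQO1 activity was measured kinetically by MTT reduction at 570 nm over 30 minutes; EC50 came from 3-parameter fit of Delta OD/min versus log concentration.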

Structure (SMILES)	EC50 [nM]
CC[C@H]1Cc2ccccc2S(=O)(=O)N(Cc2cc([C@@H](c3ccc4c(nnn4CC)c3C)C(C)(C)C(=O)Nc3nnnn3CC(C)=O)ccc2C)C1 [Example 73, (S)-3-(3-(((S)-4-Ethyl-1,1-dioxido-4,5-dihydrobenzo[f][1,2]thiazepin-2(3H)-yl)methyl)-4-methylphenyl)-3-(1-ethyl-4-methyl-1H-benzo[d][1,2,3]triazol-5-yl)-2,2-dimethyl-N-(1-(2-oxopropyl)-1H-tetrazol-5-yl)propanamide]	10 to 100
CC[C@H]1Cc2ccccc2S(=O)(=O)N(Cc2cc([C@@H](c3ccc4c(nnn4CC)c3C)C(C)(C)C(=O)Nc3nnnn3-c3ccccn3)ccc2C)C1 [Example 74, (S)-3-(3-(((S)-4-Ethyl-1,1-dioxido-4,5-dihydrobenzo[f][1,2]thiazepin-2(3H)-yl)methyl)-4-methylphenyl)-3-(1-ethyl-4-methyl-1H-benzo[d][1,2,3]triazol-5-yl)-2,2-dimethyl-N-(1-(pyridin-2-yl)-1H-tetrazol-5-yl)propanamide]	1 to 10
CC[C@H]1Cc2ccccc2S(=O)(=O)N(Cc2cc([C@@H](c3ccc4c(nnn4CC)c3C)C(C)(C)C(=O)Nc3nnnn3Cc3nccs3)ccc2C)C1 [Example 75, (S)-3-(3-(((S)-4-Ethyl-1,1-dioxido-4,5-dihydrobenzo[f][1,2]thiazepin-2(3H)-yl)methyl)-4-methylphenyl)-3-(1-ethyl-4-methyl-1H-benzo[d][1,2,3]triazol-5-yl)-2,2-dimethyl-N-(1-(thiazol-2-ylmethyl)-1H-tetrazol-5-yl)propanamide]	1 to 10
CC[C@H]1Cc2ccccc2S(=O)(=O)N(Cc2cc([C@@H](c3ccc4c(nnn4CC)c3C)C(C)(C)C(=O)Nc3nnnn3CC(=O)O)ccc2C)C1 [Example 76, 2-(5-((S)-3-(3-(((S)-4-Ethyl-1,1-dioxido-4,5-dihydrobenzo[f][1,2]thiazepin-2(3H)-yl)methyl)-4-methylphenyl)-3-(1-ethyl-4-methyl-1H-benzo[d][1,2,3]triazol-5-yl)-2,2-dimethylpropanamido)-1H-tetrazol-1-yl)acetic Acid]	10 to 100
CC[C@@H]1CN(Cc2cc([C@@H](c3ccc4c(nnn4CC)c3C)C(C)(C)NC(=O)c3nnn[nH]3)ccc2C)S(=O)(=O)c2ccccc2O1 [Example 77, N—((S)-1-(3-(((R)-4-Ethyl-1,1-dioxido-3,4-dihydro-2H-benzo[b][1,4,5]oxathiazepin-2-yl)methyl)-4-methylphenyl)-1-(1-ethyl-4-methyl-1H-benzo[d][1,2,3]triazol-5-yl)-2-methylpropan-2-yl)-1H-tetrazole-5-carboxamide, Trifluoroacetic Acid Salt]	100 to 1000
CC[C@H]1Cc2ccc(C(F)(F)F)cc2S(=O)(=O)N(Cc2cc([C@@H](c3ccc4c(nnn4CC)c3C)C(C)(C)NC(=O)Cc3nnn[nH]3)ccc2C)C1 [Example 78, N—((S)-1-(3-(((S)-4-Ethyl-1,1-dioxido-8-(trifluoromethyl)-4,5-dihydrobenzo[f][1,2]thiazepin-2(3H)-yl)methyl)-4-methylphenyl)-1-(1-ethyl-4-methyl-1H-benzo[d][1,2,3]triazol-5-yl)-2-methylpropan-2-yl)-2-(1H-tetrazol-5-yl)acetamide]	10 to 100
CC[C@@H]1CN(Cc2cc([C@@H](c3ccc4c(nnn4C)c3C)C(C)(C)C(=O)NCCNC)ccc2C)Cc2cnccc2O1 [Example 79, (S)-3-(1,4-Dimethyl-1H-benzo[d][1,2,3]triazol-5-yl)-3-(3-(((R)-2-ethyl-2,3-dihydropyrido[3,4-f][1,4]oxazepin-4(5H)-yl)methyl)-4-methylphenyl)-2,2-dimethyl-N-(2-(methylamino)ethyl)propanamide]	100 to 1000
CC[C@H]1Cc2ccccc2S(=O)(=O)N(Cc2cc([C@H](CC(=O)Nc3cccnc3)c3ccc4c(nnn4CC)c3F)ccc2C)C1 [Example 80, (S)-3-(3-(((S)-4-Ethyl-1,1-dioxido-4,5-dihydrobenzo[f][1,2]thiazepin-2(3H)-yl)methyl)-4-methylphenyl)-3-(1-ethyl-4-fluoro-1H-benzo[d][1,2,3]triazol-5-yl)-N-(pyridin-3-yl)propanamide]	10 to 100
CC[C@H]1Cc2ccccc2S(=O)(=O)N(Cc2cc([C@H](CC(=O)NCCNC)c3ccc4c(nnn4CC)c3F)ccc2C)C1 [Example 81, (S)-3-(3-(((S)-4-Ethyl-1,1-dioxido-4,5-dihydrobenzo[f][1,2]thiazepin-2(3H)-yl)methyl)-4-methylphenyl)-3-(1-ethyl-4-fluoro-1H-benzo[d][1,2,3]triazol-5-yl)-N-(2-(methylamino)ethyl)propanamide]	10 to 100
CCCn1cc(CC[C@@H](c2ccc(C)c(CN3C[C@@H](CC)Oc4ccccc4S3(=O)=O)c2)C(C)(C)C(=O)Nc2cccnc2)nn1 [Example 82, (S)-3-(3-(((R)-4-Ethyl-1,1-dioxido-3,4-dihydro-2H-benzo[b][1,4,5]oxathiazepin-2-yl)methyl)-4-methylphenyl)-2,2-dimethyl-5-(1-propyl-1H-1,2,3-triazol-4-yl)-N-(pyridin-3-yl)pentanamide]	100 to 1000
CCCn1cc(CC[C@H](c2ccc(C)c(CN3C[C@@H](CC)Oc4ccccc4S3(=O)=O)c2)C(C)(C)C(=O)Nc2cccnc2)nn1 [Example 83, (R)-3-(3-(((R)-4-Ethyl-1,1-dioxido-3,4-dihydro-2H-benzo[b][1,4,5]oxathiazepin-2-yl)methyl)-4-methylphenyl)-2,2-dimethyl-5-(1-propyl-1H-1,2,3-triazol-4-yl)-N-(pyridin-3-yl)pentanamide]	100 to 1000
CC[C@@H]1CN(Cc2cc([C@@H](c3ccc4c(nnn4C)c3C)C(C)(C)C(=O)Nc3cccnc3)ccc2Cl)S(=O)(=O)c2ccccc2O1 [Example 84, (S)-3-(4-Chloro-3-(((R)-4-ethyl-1,1-dioxido-3,4-dihydro-2H-benzo[b][1,4,5]oxathiazepin-2-yl)methyl)phenyl)-3-(1,4-dimethyl-1H-benzo[d][1,2,3]triazol-5-yl)-2,2-dimethyl-N-(pyridin-3-yl)propanamide]	10 to 100
CCCn1nnc2c(C)c([C@H](c3ccc(C)c(CN4C[C@@H](CC)Oc5ccccc5S4(=O)=O)c3)C(C)(C)C(=O)Nc3cccnc3)ccc21 [Example 85, (S)-3-(3-(((R)-4-Ethyl-1,1-dioxido-3,4-dihydro-2H-benzo[b][1,4,5]oxathiazepin-2-yl)methyl)-4-methylphenyl)-2,2-dimethyl-3-(4-methyl-1-propyl-1H-benzo[d][1,2,3]triazol-5-yl)-N-(pyridin-3-yl)propanamide]	10 to 100
CC[C@@H]1CN(Cc2cc([C@@H](c3ccc4c(nnn4CC)c3C)C(C)(C)C(=O)Nc3cnc(Cl)nc3)ccc2C)S(=O)(=O)c2cccnc2O1 [Example 86, (S)—N-(2-Chloropyrimidin-5-yl)-3-(3-(((R)-4-ethyl-1,1-dioxido-3,4-dihydro-2H-pyrido[2,3-b][1,4,5]oxathiazepin-2-yl)methyl)-4-methylphenyl)-3-(1-ethyl-4-methyl-1H-benzo[d][1,2,3]triazol-5-yl)-2,2-dimethylpropanamide]	1 to 10
CC[C@@H]1CN(Cc2cc([C@@H](c3ccc4c(nnn4CC)c3C)C(C)(C)C(N)=O)ccc2C)S(=O)(=O)c2ccccc2O1 [Example 87, (S)-3-(3-(((R)-4-Ethyl-1,1-dioxido-3,4-dihydro-2H-benzo[b][1,4,5]oxathiazepin-2-yl)methyl)-4-methylphenyl)-3-(1-ethyl-4-methyl-1H-benzo[d][1,2,3]triazol-5-yl)-2,2-dimethylpropanamide]	1 to 10
CC[C@H]1Cc2ccc(C(F)(F)F)cc2S(=O)(=O)N(Cc2cc([C@@H](c3ccc4c(nnn4CC)c3C)C(C)(C)C(N)=O)ccc2C)C1 [Example 88, (S)-3-(3-(((S)-4-ethyl-1,1-dioxido-8-(trifluoromethyl)-4,5-dihydrobenzo[f][1,2]thiazepin-2(3H)-yl)methyl)-4-methylphenyl)-3-(1-ethyl-4-methyl-1H-benzo[d][1,2,3]triazol-5-yl)-2,2-dimethylpropanamide]	1 to 10
CC[C@@H]1CN(Cc2cc([C@@H](c3ccc4c(nnn4C)c3C)C(C)(C)C(N)=O)ccc2Cl)S(=O)(=O)c2ccccc2O1 [Example 89, (S)-3-(4-chloro-3-(((R)-4-ethyl-1,1-dioxido-3,4-dihydro-2H-benzo[b][1,4,5]oxathiazepin-2-yl)methyl)phenyl)-3-(1,4-dimethyl-1H-benzo[d][1,2,3]triazol-5-yl)-2,2-dimethylpropanamide]	10 to 100
CC[C@H]1Cc2ccc(C(F)(F)F)cc2S(=O)(=O)N(Cc2cc([C@@H](OCc3cn(CC)nn3)C(C)(C)C(N)=O)ccc2C)C1 [Example 90, (R)-3-(3-(((S)-4-ethyl-1,1-dioxido-8-(trifluoromethyl)-4,5-dihydrobenzo[f][1,2]thiazepin-2(3H)-yl)methyl)-4-methylphenyl)-3-((1-ethyl-1H-1,2,3-triazol-4-yl)methoxy)-2,2-dimethylpropanamide]	100 to 1000
CC[C@@H]1CN(Cc2cc([C@@H](c3ccc4c(nnn4CC)c3C)C(C)(C)C(=O)Nc3cncnc3)ccc2C)S(=O)(=O)c2ccccc2O1 [Example 91, (S)-3-(3-(((R)-4-Ethyl-1,1-dioxido-3,4-dihydro-2H-benzo[b][1,4,5]oxathiazepin-2-yl)methyl)-4-methylphenyl)-3-(1-ethyl-4-methyl-1H-benzo[d][1,2,3]triazol-5-yl)-2,2-dimethyl-N-(pyrimidin-5-yl)propanamide]	1 to 10
CC[C@H]1Cc2ccc(C(F)(F)F)cc2S(=O)(=O)N(Cc2cc([C@@H](c3ccc4c(nnn4CC)c3C)C(C)(C)C(=O)Nc3cncnc3)ccc2C)C1 [Example 92, (S)-3-(3-(((S)-4-Ethyl-1,1-dioxido-8-(trifluoromethyl)-4,5-dihydrobenzo[f][1,2]thiazepin-2(3H)-yl)methyl)-4-methylphenyl)-3-(1-ethyl-4-methyl-1H-benzo[d][1,2,3]triazol-5-yl)-2,2-dimethyl-N-(pyrimidin-5-yl)propanamide]	1 to 10
